The test system of data set [1] is SH-SY5Y cells. Description: Western blot of acetyl-α-tubulin and acetyl-histone, SH-SY5Y cells. The note with it: 0.1 to 1 μM, 24 h. In kind it is cell-based, human. Here is the method: (§1) Cell viabilities were determined by MTT assay. The results represent the mean ± SEM of three independent experiments; *p < 0.05, **p < 0.01 and ***p < 0.001 compared with controls TEXT PRINTED IN THE PICTURE: (A) no label printed: M.W. 293.32
(§2) Cells (1 × 10^6) were incubated for 10 min at 4 °C in lysis buffer (20 mM HEPES, pH 7.4, 2 mM EGTA, 50 mM β-glycerophosphate, 0.1% Triton X-100, 10% glycerol, 1 mM dithiothreitol, 1 μg/mL leupeptin, 5 μg/mL aprotinin, 1 mM phenylmethylsulfonyl fluoride, and 1 mM sodium orthovanadate), scraped from the plate, incubated on ice for 10 min, and centrifuged at 17,000 × g for 30 min at 4 °C. Protein samples (30 μg) were electrophoresed through sodium dodecyl sulfate-polyacrylamide gels (SDS-PAGE) and transferred onto a nitrocellulose membrane, which was then blocked by incubation for 30 min at room temperature with 5% fat-free milk in PBS. Immunoblotting was performed by overnight incubation at 4 °C with primary antibodies in PBS, followed by incubation for 1 h at room temperature with HRP-conjugated secondary antibodies. Bound antibodies were measured using ECL reagent (T-Pro Biotechnology, New Taipei City, Taiwan), and the membrane was placed on a photographic film. Cell lysates (30 μg) were incubated with antibodies (1 μg each) and protein A/G agarose beads overnight at 4 °C. The precipitated beads were washed three times with 1 mL of ice-cold cell lysis buffer, and bound immune complexes were separated using 8% SDS-PAGE, followed by immunoblotting using the indicated primary antibody.
For orientation: In western blotting, separated proteins are transferred to a membrane and probed.

For data set [2], the system named is SH-SY5Y cells. Description: MTT cell viability, SH-SY5Y. The class given is cell-based, human. The note with it: 24 h, 0.01–1 μM. The procedure: as §1
Data set [3] has as its system Neuro-2a cells. Description: MTT cell viability, Neuro-2a. The class given is cell-based, mouse. The note with it: 24 h, 0.01–1 μM. The procedure:
as §1

In data set [4] the test system is Neuro-2a cells. Description: Immunoprecipitation/immunoblot of HDAC6, acetyl-lysine, ubiquitin in transfected Neuro-2a cells. In kind it is cell-based, mouse. The note with it: Neuro-2a transfected, 24 h. Here is the method: Fig. 4 MPT0G211 increased the ubiquitination of p-tau and degradation by proteasome. a, b SH-SY5Y and Neuro-2a cells were transfected for 24 h with pCAX APP 695 and pRK5-EGFP-Tau P301L and incubated with MPT0G211 or ACY-1215 (0.1 μM) for another 24 h, after which the cell lysates were immunoprecipitated with antibodies against HDAC6, acetyl-lysine (a) or ubiquitin (b) and were subjected to immunoblotting. c Cells were transfected with pCAX APP 695 and pRK5-EGFP-Tau P301L for 24 h and were then incubated with MPT0G211 (0.01–1 μM) for another 24 h. Immunoblots reveal polyubiquitin complexes. d pCAX APP 695 or pRK5-EGFP-Tau P301L were used to transfect the cells for 24 h, incubated with or without MG132 (1 μM) for 30 min, and were then treated with MPT0G211 or ACY-1215 (0.1 μM) for another 24 h. Cell lysates were prepared for western blot analysis of the indicated proteins
as §2

A short description of data set [5]: BBB crossing assay: brain and plasma concentrations by LC-MS/MS after oral administration. In kind it is in vivo, rat. The note with it: rats. The procedure:
Successful crossing of the BBB by therapeutic drugs is essential in the treatment of CNS disorders. To explore whether MPT0G211 can penetrate into the brain, single oral administration of MPT0G211 was performed, and plasma and brain samples were collected and analyzed by liquid chromatography tandem mass spectrometry (LC-MS/MS) to obtain brain/plasma ratios.
This assay was performed by Eurofins Scientific. Briefly, SD rats weighing 200–300 g were provided by BioLasco Taiwan (under the license of Charles River Laboratories). Rats were sedated under general inhalant anesthesia (3% isoflurane) for blood collection using cardiac puncture 60 and 180 min after oral administration of the test compound. Aliquots of blood were gently mixed with lithium heparin, kept on ice, and centrifuged at 2500 × g for 15 min at 4 °C. The plasma was then harvested and stored at −70 °C. After blood sampling, rats were decapitated, and the entire brain was quickly removed and rinsed with cold saline (0.9% NaCl, w/v). The surface vasculature was ruptured, blotted with dry gauze, weighed, and stored on ice within 1 h of collection. Each brain was homogenized in 3 mL cold PBS, pH 7.4, for 10 s on ice, and centrifuged at 5400 × g for 15 min at 4 °C. Supernatants were precipitated using acetonitrile precipitation and subjected to high-performance LC-MS/MS.

A short description of the next data set: Elevated plus maze. Also noted: species or system rat. As to conditions: AD in vivo models; stated in introduction only. The procedure:
The plus maze consisted of two open and two closed arms, connected by a central platform. Animals were individually placed at the end of either of the open arms facing away from the central platform. The time for each rat to move from the open arm to either of the closed arms was recorded. […] These experiments were performed in accordance with relevant ethics guidelines and regulations, which were reviewed and approved by the Animal Use and Management Committee of the College of Medicine, National Taiwan University (IACUC number: 20130361).

The record followed here is PMC5974403, “The novel histone de acetylase 6 inhibitor, MPT0G211, ameliorates tau phosphorylation and cognitive deficits in an Alzheimer’s disease model” (Cell Death & Disease, 2018).

Like-named read-outs stand apart in the source and are kept apart here.

As for `O=C(NO)c1ccc(CNc2cccc3cccnc23)cc1` [MPT0G211, N-hydroxy-4-((quinolin-8-ylamino)methyl)benzamide], the acetylation of histones entry in the data set with SH-SY5Y cells [1] was “without affecting the acetylation of histones”. In addition, the “acetylation of α-tubulin” value in the data set with SH-SY5Y cells [1] was “concentration-dependently increased”. Besides, the “cytotoxicity (MTT cell viability)” value in the data set with SH-SY5Y cells [2] and in the data set on Neuro-2a cells [3] was “did not result in any significant cytotoxicity” in each case. Moreover, the “coimmunoprecipitation of ubiquitin with p-tau (Ser396)” value in the data set with Neuro-2a cells [4] (0.1 μM) was “clearly increased”. Further, the HDAC6/Hsp90 binding entry in the data set with Neuro-2a cells [4] (0.1 μM, IP) was “downregulation”. In addition, the “acetylation of Hsp90” value with Neuro-2a cells [4] (0.1 μM, IP) was “clearly enhanced”. The “level of polyubiquitinated proteins” value in the data set with Neuro-2a cells [4] (0.01–1 μM) is listed as “significantly accumulated”. Besides, the Kp at 3 h in data set [5] (SD, rat, brain/plasma, PO 50 mg/kg, 3 h, read-out: Brain/plasma ratio) is 0.9. The concentration at 1 h in data set [5] (SD, rat, brain, PO 50 mg/kg, 1 h, read-out: Brain concentration) came out at 56.9 ± 3.4 ng/g; in data set [5] (SD, rat, plasma, PO 50 mg/kg, 1 h, read-out: Plasma concentration), 56.4 ± 4 ng/g. In addition, the concentration at 3 h worked out at 11 ± 0.1 ng/g in data set [5] (SD, rat, brain, PO 50 mg/kg, 3 h, read-out: Brain concentration) and 12.2 ± 1.4 ng/g in data set [5] (SD, rat, plasma, PO 50 mg/kg, 3 h, read-out: Plasma concentration). The Kp at 1 h in data set [5] (SD, rat, in vivo, PO 50 mg/kg, 1 h, read-out: Brain/plasma ratio) came to 1.01. For the same compound, the BBB penetration result in data set [5] (single oral administration) is on record as “can penetrate the BBB”. Besides, the “time for which concentrations were detected in the brain” value in data set [5] (single oral administration) is reported as “at least 3 h”. In addition, the “time spent in finding the closed arm (elevated plus maze) and platform (Morris water maze)” value in the data set “Elevated plus maze” is “reduced the time spent by animals in finding the platform and closed arm”.
